The target of one assay is T1, human 5-LOX (Homo sapiens, UniProt P09917).
T1 construct: purchased Cayman 60402; host or cells: insect cells (lysate)
T1 sequence (P09917 1-674): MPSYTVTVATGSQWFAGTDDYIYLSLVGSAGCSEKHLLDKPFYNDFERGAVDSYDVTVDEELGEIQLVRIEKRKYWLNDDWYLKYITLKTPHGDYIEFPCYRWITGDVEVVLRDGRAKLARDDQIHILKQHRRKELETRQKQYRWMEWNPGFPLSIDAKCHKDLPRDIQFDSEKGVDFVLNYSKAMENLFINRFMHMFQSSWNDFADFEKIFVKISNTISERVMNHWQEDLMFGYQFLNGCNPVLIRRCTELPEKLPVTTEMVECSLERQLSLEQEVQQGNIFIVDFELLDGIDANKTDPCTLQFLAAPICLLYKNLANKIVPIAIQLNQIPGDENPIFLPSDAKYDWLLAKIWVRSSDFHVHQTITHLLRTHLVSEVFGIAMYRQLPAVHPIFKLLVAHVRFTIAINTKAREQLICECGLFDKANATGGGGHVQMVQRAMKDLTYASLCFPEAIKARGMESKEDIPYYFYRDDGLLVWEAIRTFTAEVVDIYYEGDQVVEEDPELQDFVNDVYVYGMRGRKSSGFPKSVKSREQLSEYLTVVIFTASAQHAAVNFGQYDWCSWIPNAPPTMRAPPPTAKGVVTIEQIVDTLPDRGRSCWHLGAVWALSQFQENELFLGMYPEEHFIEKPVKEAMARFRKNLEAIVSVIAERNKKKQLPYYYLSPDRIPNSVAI
Kind of assay: 5-LOX enzyme activity, fluorescence method (5-HPETE, H2DCFDA). The settings on record: read-out: 5-LO (IC50). Type of assay: biochemical. An outline of the steps: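 Compound (0.5 nM to 10 uM) pre-incubated 5 min with enzyme; reaction started with ATP (100 uM final) and arachidonic acid (3 uM final). All steps at room temperature, fluorescence read-out.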

In assay [1] the test system is Rat basophilic leukemia (RBL) cells. Kind of assay: LTB4 secretion assay in RBL (rat basophilic leukemia cells). Type of assay: cell-based. In a few lines:
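Cells seeded 2×10^4/well the day before, then pre-incubated 15 min at 37 °C in EMEM/0.5% FBS with compound (5 nM to 100 uM). Stimulation with 2.5 uM arachidonic acid plus 5 uM A23187 (final) for 10 min at 37 °C; LTB4 in supernatant quantified by EIA.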

In the next assay the test system is Rat whole blood (RWB). Kind of assay: LTB4 secretion assay in RWB (rat whole blood). In kind it is cell-based. An outline of the steps: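 Heparinized blood from male Sprague Dawley rats (6-9 weeks) diluted 1:1 in RPMI, pre-incubated 15 min at 37 °C with compound (2.5 nM to 50 uM). Stimulated with 10 uM calcium ionophore A23187 for 10 min at 37 °C, stopped with ice-cold PBS; LTB4 in supernatant quantified by EIA.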

The structures appear in SMILES notation. Like-named read-outs stand apart in the source and are kept apart here.

Broadly, the IC50 is the midpoint of a concentration-inhibition curve. A word on the EC50: it is the concentration that produces a half-maximal response. Lower therefore signals an effect from little substance.

On to `Nc1ccc2[nH]c(NCc3ccc(Oc4ccccc4)cc3)nc2c1` [Compound 80], for which the IC50 on human 5-LOX is under 1000 nM. For the same molecule, the EC50 is under 10 µM in assay [1] (Rattus norvegicus, RBL) and under 10 µM in the assay on Rat whole blood (RWB) (Rattus norvegicus).

Consider `Nc1ccc2c(c1)nc(N)n2Cc1ccc(Oc2ccc(Cl)cn2)cc1` [Compound 199], for which the 50% inhibitory concentration (IC50) at human 5-LOX is under 1000 nM. In addition, the EC50 in assay [1] (Rattus norvegicus, RBL) was under 10 µM; with Rat whole blood (RWB) (Rattus norvegicus) it was under 10 µM.

For the molecule `Cc1cc(Nc2ccc3nc(NCc4ccc(Oc5nccc(Cl)n5)cc4)n(C)c3c2)n[nH]1` [Compound 489], the IC50 on human 5-LOX is under 1000 nM. Further, the EC50 in assay [1] (Rattus norvegicus, RBL) is under 10 µM; in the assay with Rat whole blood (RWB) (Rattus norvegicus), under 10 µM.

For the molecule `Nc1ccc2[nH]c(N3CCCC3c3ccc(Oc4ccc(Cl)cc4)cc3)nc2c1` (stereo not drawn) [Compound 145], the IC50 on human 5-LOX is under 1000 nM. Also, the concentration for a half-maximal effect (EC50) was under 10 µM in assay [1] (Rattus norvegicus, RBL) and under 10 µM in the assay on Rat whole blood (RWB) (Rattus norvegicus).

For the molecule `Cn1c(NCc2ccc(Oc3ncc(Cl)cn3)c(Cl)c2)nc2ccc(NC3COC3)cc21` [Compound 392], the half-inhibitory concentration (IC50) on human 5-LOX was under 1000 nM. The EC50 was under 10 µM in assay [1] (Rattus norvegicus, RBL) and under 10 µM with Rat whole blood (RWB) (Rattus norvegicus).

For the molecule `Cn1c(NCc2ccc(Oc3ccc(Cl)cc3)cn2)nc2ccc(NC3COC3)cc21` [Compound 298], the 50% inhibitory concentration (IC50) at human 5-LOX was under 1000 nM. The EC50 in assay [1] (Rattus norvegicus, RBL) is under 10 µM; with Rat whole blood (RWB) (Rattus norvegicus) it was over 20 µM.

With `Fc1ccc(CNc2nc3ccc(N4CCC(Oc5ccc(OC(F)(F)F)cc5)C4)cc3[nH]2)cc1` (stereo not drawn) [Compound 77], the IC50 on human 5-LOX is under 1000 nM. Besides, the EC50 was 10 to 20 µM in assay [1] (Rattus norvegicus, RBL) and under 10 µM in the assay with Rat whole blood (RWB) (Rattus norvegicus).

Take `CCn1c(NCc2ccc(Oc3ncc(C(F)(F)F)cn3)cc2)nc2ccc(Nc3cc(C(C)(C)C)[nH]n3)cc21` [Compound 507]: the IC50 on human 5-LOX is under 1000 nM. For the same molecule, the EC50 was under 10 µM in assay [1] (Rattus norvegicus, RBL) and 10 to 20 µM in the assay with Rat whole blood (RWB) (Rattus norvegicus).

For the molecule `Cn1c(NCc2ccc(Oc3ncccn3)cc2)nc2ccc(NC3COC3)cc21` [Compound 345], at human 5-LOX, the half-maximal inhibitory concentration (IC50) is under 1000 nM. Also, the concentration giving a half-maximal response (EC50) in assay [1] (Rattus norvegicus, RBL) was over 20 µM; in the assay with Rat whole blood (RWB) (Rattus norvegicus), under 10 µM.

As to `Nc1ccc2[nH]c(NCCc3ccc(F)cc3)nc2c1` [Compound 32], the half-maximal inhibitory concentration (IC50) on human 5-LOX is under 1000 nM. The EC50 in assay [1] (Rattus norvegicus, RBL) was under 10 µM; in the assay on Rat whole blood (RWB) (Rattus norvegicus), under 10 µM.

Regarding `CNc1nc2ccc(N)cc2n1Cc1ccc(Oc2ccc(Cl)cn2)cc1` [Compound 229], the IC50 on human 5-LOX is under 1000 nM. The 50% effective concentration (EC50) was under 10 µM in assay [1] (Rattus norvegicus, RBL) and under 10 µM in the assay on Rat whole blood (RWB) (Rattus norvegicus).

As to `Clc1ccc(Oc2ccc(CNc3nc4cc(NC5COC5)ccc4[nH]3)cc2)nc1` [Compound 166], the IC50 at human 5-LOX is under 1000 nM. In addition, the EC50 in assay [1] (Rattus norvegicus, RBL) is under 10 µM; with Rat whole blood (RWB) (Rattus norvegicus) it was under 10 µM.

`CCC(Nc1nc2ccc(Nc3cc(C(F)(F)F)n(C)n3)cc2n1C)c1ccc(Oc2cnc(Cl)cn2)cc1` (stereo not drawn) [Compound 517]: the IC50 on human 5-LOX lay in the range of 1000 to 10000 nM. Moreover, the concentration for a half-maximal effect (EC50) in assay [1] (Rattus norvegicus, RBL) was under 10 µM; with Rat whole blood (RWB) (Rattus norvegicus), under 10 µM.

For the molecule `Cc1cc(Nc2cnc3nc(NCc4ccc(Oc5ncc(Cl)cn5)cc4)n(C)c3c2)n[nH]1` [Compound 497], the IC50 on human 5-LOX is 1000 to 10000 nM. Also, the half-maximal effective concentration (EC50) in assay [1] (Rattus norvegicus, RBL) is over 20 µM; in the assay on Rat whole blood (RWB) (Rattus norvegicus), over 20 µM.

Turning to `CCC(Nc1nc2ccc(Nc3cc(C(C)C)[nH]n3)cc2n1C)c1ccc(Oc2ncc(Cl)cn2)cc1` (stereo not drawn) [Compound 529], at human 5-LOX, the IC50 was under 1000 nM. Also, the EC50 is under 10 µM in assay [1] (Rattus norvegicus, RBL) and under 10 µM in the assay with Rat whole blood (RWB) (Rattus norvegicus).

For the molecule `Cn1c(NCc2ccc(C(=O)Nc3ccc(Cl)cn3)cc2)nc2ccc(NC3COC3)cc21` [Compound 303], the IC50 on human 5-LOX was under 1000 nM. The concentration for a half-maximal effect (EC50) in assay [1] (Rattus norvegicus, RBL) was over 20 µM; in the assay on Rat whole blood (RWB) (Rattus norvegicus), over 20 µM.

For `CCn1c(NCc2ccc(Oc3ncc(C(F)(F)F)cn3)cc2)nc2ccc(Nc3cc(C(C)(C)C)[nH]n3)cc21` [Compound 513], the IC50 at human 5-LOX was under 1000 nM. Besides, the EC50 (in assay [1]; in the assay on Rat whole blood (RWB)) was under 10 µM in each case.

As for `Cn1c(NCc2ccc(Oc3ccc(Cl)cn3)cc2Cl)nc2ccc(NC3COC3)cc21` [Compound 294], the half-maximal inhibitory concentration (IC50) on human 5-LOX was under 1000 nM. The concentration for a half-maximal effect (EC50) is under 10 µM in assay [1] (Rattus norvegicus, RBL) and over 20 µM in the assay on Rat whole blood (RWB) (Rattus norvegicus).

`Cn1c(NCc2ccc(Oc3ncc(Cl)cn3)cc2)nc2ccc(Nc3cc(C(C)(C)C)[nH]n3)cc21` [Compound 469]: at human 5-LOX, the IC50 is under 1000 nM. Further, the EC50 is under 10 µM in assay [1] (Rattus norvegicus, RBL) and under 10 µM in the assay on Rat whole blood (RWB) (Rattus norvegicus).

Values taken from patent US11447486B2, “2-amino-benzimidazole derivatives and their use as 5-lipoxygenase and/or prostaglandin E synthase inhibitors” (INSTITUT PASTEUR KOREA, priority 2014, dated 2022).
